{"source": "PubChem BioAssay (NCI)", "assay_in_all_cases": "NCI tumour cell line growth inhibition, 48 h", "key": {"OVCAR-3 ovarian": {"tested_on": "OVCAR-3 ovarian"}, "SK-OV-3 ovarian": {"tested_on": "SK-OV-3 ovarian"}, "SK-MEL-5 melanoma": {"tested_on": "SK-MEL-5 melanoma"}, "NCI-H522 lung": {"tested_on": "NCI-H522 lung"}, "HOP-18 NSCLC": {"tested_on": "HOP-18 NSCLC"}, "HCT-116 colon": {"tested_on": "HCT-116 colon"}, "KM12 colon": {"tested_on": "KM12 colon"}, "UACC-257 melanoma": {"tested_on": "UACC-257 melanoma"}, "SF-268 CNS": {"tested_on": "SF-268 CNS"}, "NCI-H460 lung": {"tested_on": "NCI-H460 lung"}, "HL-60(TB) leukemia": {"tested_on": "HL-60(TB) leukemia"}, "NCI-H226 lung": {"tested_on": "NCI-H226 lung"}, "SW-620 colon": {"tested_on": "SW-620 colon"}, "MALME-3M melanoma": {"tested_on": "MALME-3M melanoma"}, "HCC-2998 colon": {"tested_on": "HCC-2998 colon"}, "HOP-92 NSCLC": {"tested_on": "HOP-92 NSCLC"}, "P388/ADR leukemia": {"tested_on": "P388/ADR leukemia"}, "SN12C renal": {"tested_on": "SN12C renal"}, "HT29 colon": {"tested_on": "HT29 colon"}, "MOLT-4 leukemia": {"tested_on": "MOLT-4 leukemia"}, "SNB-78 CNS": {"tested_on": "SNB-78 CNS"}, "SF-539 CNS": {"tested_on": "SF-539 CNS"}, "SF-295 CNS": {"tested_on": "SF-295 CNS"}, "SK-MEL-28 melanoma": {"tested_on": "SK-MEL-28 melanoma"}, "U251 CNS": {"tested_on": "U251 CNS"}, "A549 NSCLC": {"tested_on": "A549 NSCLC"}, "EKVX NSCLC": {"tested_on": "EKVX NSCLC"}, "NCI-H23 lung": {"tested_on": "NCI-H23 lung"}, "DLD-1 colon": {"tested_on": "DLD-1 colon"}, "SK-MEL-2 melanoma": {"tested_on": "SK-MEL-2 melanoma"}, "UACC-62 melanoma": {"tested_on": "UACC-62 melanoma"}, "COLO 205 colon": {"tested_on": "COLO 205 colon"}, "A498 renal": {"tested_on": "A498 renal"}, "SNB-75 CNS": {"tested_on": "SNB-75 CNS"}, "DMS 114 small cell lung": {"tested_on": "DMS 114 small cell lung"}, "DMS 273 small cell lung": {"tested_on": "DMS 273 small cell lung"}, "K-562 leukemia": {"tested_on": "K-562 leukemia"}, "MCF7 breast": {"tested_on": "MCF7 breast"}, "OVCAR-4 ovarian": {"tested_on": "OVCAR-4 ovarian"}, "SNB-19 CNS": {"tested_on": "SNB-19 CNS"}, "OVCAR-5 ovarian": {"tested_on": "OVCAR-5 ovarian"}, "M19-MEL melanoma": {"tested_on": "M19-MEL melanoma"}, "HOP-62 NSCLC": {"tested_on": "HOP-62 NSCLC"}, "RXF 393 renal": {"tested_on": "RXF 393 renal"}, "CCRF-CEM leukemia": {"tested_on": "CCRF-CEM leukemia"}, "LOX IMVI melanoma": {"tested_on": "LOX IMVI melanoma"}, "P388 leukemia": {"tested_on": "P388 leukemia"}, "OVCAR-8 ovarian": {"tested_on": "OVCAR-8 ovarian"}, "KM20L2 colon": {"tested_on": "KM20L2 colon"}, "SN12K1 renal": {"tested_on": "SN12K1 renal"}, "HCT-15 colon": {"tested_on": "HCT-15 colon"}, "CAKI-1 renal": {"tested_on": "CAKI-1 renal"}, "IGROV1 ovarian": {"tested_on": "IGROV1 ovarian"}, "RPMI-8226 leukemia": {"tested_on": "RPMI-8226 leukemia"}, "UO-31 renal": {"tested_on": "UO-31 renal"}, "NCI/ADR-RES ovarian": {"tested_on": "NCI/ADR-RES ovarian"}}, "note": "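Briefly, cells in 96-well plates were exposed to five compound concentrations for 48 h, and endpoints were estimated by linear interpolation. TGI: concentration producing complete growth inhibition.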", "data": [{"smiles": "CCCCc1[nH]ccc2c(C)c3nc4ccccc4c3cc12", "values": [{"measurement": "TGI", "setting": "OVCAR-3 ovarian", "value": 10.8, "unit": "µM"}, {"measurement": "TGI", "setting": "SK-OV-3 ovarian", "value": 16.8, "unit": "µM"}, {"measurement": "TGI", "setting": "SK-MEL-5 melanoma", "value": 6.52, "unit": "µM"}, {"measurement": "TGI", "setting": "NCI-H522 lung", "value": 6.75, "unit": "µM"}, {"measurement": "TGI", "setting": "HOP-18 NSCLC", "value": 6.83, "unit": "µM"}, {"measurement": "TGI", "setting": "HCT-116 colon", "value": 4.76, "unit": "µM"}, {"measurement": "TGI", "setting": "KM12 colon", "value": 12.7, "unit": "µM"}, {"measurement": "TGI", "setting": "UACC-257 melanoma", "value": 5.13, "unit": "µM"}, {"measurement": "TGI", "setting": "SF-268 CNS", "value": 21.6, "unit": "µM"}, {"measurement": "TGI", "setting": "NCI-H460 lung", "value": 5.03, "unit": "µM"}, {"measurement": "TGI", "setting": "HL-60(TB) leukemia", "value": 3.45, "unit": "µM"}, {"measurement": "TGI", "setting": "NCI-H226 lung", "value": 24.6, "unit": "µM"}, {"measurement": "TGI", "setting": "SW-620 colon", "value": 6.78, "unit": "µM"}, {"measurement": "TGI", "setting": "MALME-3M melanoma", "value": 14.5, "unit": "µM"}, {"measurement": "TGI", "setting": "HCC-2998 colon", "value": 8.19, "unit": "µM"}, {"measurement": "TGI", "setting": "HOP-92 NSCLC", "value": 12.4, "unit": "µM"}, {"measurement": "TGI", "setting": "P388/ADR leukemia", "value": 7.29, "unit": "µM"}, {"measurement": "TGI", "setting": "SN12C renal", "value": 19.4, "unit": "µM"}, {"measurement": "TGI", "setting": "HT29 colon", "value": 8.85, "unit": "µM"}, {"measurement": "TGI", "setting": "MOLT-4 leukemia", "value": 4.72, "unit": "µM"}, {"measurement": "TGI", "setting": "SNB-78 CNS", "value": 21.3, "unit": "µM"}, {"measurement": "TGI", "setting": "SF-539 CNS", "value": 7.45, "unit": "µM"}, {"measurement": "TGI", "setting": "SF-295 CNS", "value": 8.41, "unit": "µM"}, {"measurement": "TGI", "setting": "SK-MEL-28 melanoma", "value": 11.8, "unit": "µM"}, {"measurement": "TGI", "setting": "U251 CNS", "value": 12.8, "unit": "µM"}, {"measurement": "TGI", "setting": "A549 NSCLC", "value": 14.1, "unit": "µM"}, {"measurement": "TGI", "setting": "EKVX NSCLC", "value": 13.6, "unit": "µM"}, {"measurement": "TGI", "setting": "NCI-H23 lung", "value": 16, "unit": "µM"}, {"measurement": "TGI", "setting": "DLD-1 colon", "value": 13.3, "unit": "µM"}, {"measurement": "TGI", "setting": "SK-MEL-2 melanoma", "value": 11.4, "unit": "µM"}, {"measurement": "TGI", "setting": "UACC-62 melanoma", "value": 8.75, "unit": "µM"}, {"measurement": "TGI", "setting": "COLO 205 colon", "value": 3.39, "unit": "µM"}, {"measurement": "TGI", "setting": "A498 renal", "value": 13.4, "unit": "µM"}, {"measurement": "TGI", "setting": "SNB-75 CNS", "value": 15.8, "unit": "µM"}, {"measurement": "TGI", "setting": "DMS 114 small cell lung", "value": 4.14, "unit": "µM"}, {"measurement": "TGI", "setting": "DMS 273 small cell lung", "value": 2.4, "unit": "µM"}, {"measurement": "TGI", "setting": "K-562 leukemia", "value": 5.98, "unit": "µM"}, {"measurement": "TGI", "setting": "MCF7 breast", "value": 10.8, "unit": "µM"}, {"measurement": "TGI", "setting": "OVCAR-4 ovarian", "value": 13.5, "unit": "µM"}, {"measurement": "TGI", "setting": "SNB-19 CNS", "value": 11.6, "unit": "µM"}, {"measurement": "TGI", "setting": "OVCAR-5 ovarian", "value": 17.2, "unit": "µM"}, {"measurement": "TGI", "setting": "M19-MEL melanoma", "value": 10.9, "unit": "µM"}, {"measurement": "TGI", "setting": "HOP-62 NSCLC", "value": 14.5, "unit": "µM"}, {"measurement": "TGI", "setting": "RXF 393 renal", "value": 7.61, "unit": "µM"}, {"measurement": "TGI", "setting": "CCRF-CEM leukemia", "value": 10.6, "unit": "µM"}, {"measurement": "TGI", "setting": "LOX IMVI melanoma", "value": 4.3, "unit": "µM"}, {"measurement": "TGI", "setting": "P388 leukemia", "value": 4.13, "unit": "µM"}, {"measurement": "TGI", "setting": "OVCAR-8 ovarian", "value": 9.49, "unit": "µM"}, {"measurement": "TGI", "setting": "KM20L2 colon", "value": 10.8, "unit": "µM"}, {"measurement": "TGI", "setting": "SN12K1 renal", "value": 5.75, "unit": "µM"}, {"measurement": "TGI", "setting": "HCT-15 colon", "value": 8.49, "unit": "µM"}, {"measurement": "TGI", "setting": "CAKI-1 renal", "value": 6.33, "unit": "µM"}, {"measurement": "TGI", "setting": "IGROV1 ovarian", "value": 16.9, "unit": "µM"}, {"measurement": "TGI", "setting": "RPMI-8226 leukemia", "value": 6.77, "unit": "µM"}, {"measurement": "TGI", "setting": "UO-31 renal", "value": 10.9, "unit": "µM"}, {"measurement": "TGI", "setting": "NCI/ADR-RES ovarian", "value": 5.87, "unit": "µM"}]}]}
